Measurements as given in ChEMBL document CHEMBL5344435 (J Med Chem, 2024).

Test: in vivo
Settings: C57BL/6J, mouse, po, 10 mg/kg

For `[O-][n+]1cc(O)cc(CCCc2ccc(Cl)c(C(F)(F)F)c2)c1`, the Cmax at 24 h was 102 ng/mL.
